Here are results for three molecules from ChEMBL document CHEMBL2074083, “Functional characterization of SLCO1B1 (OATP-C) variants, SLCO1B1*5, SLCO1B1*15 and SLCO1B1*15+C1007G, by using transient expression systems of HeLa and HEK293 cells” (Pharmacogenet Genomics, 2005).

What all share (assay type): functional, cell-based
Data set [1] has as its target T1, OATP1B1 (Homo sapiens, UniProt Q9Y6L6).
T1 sequence (Q9Y6L6 whole entry): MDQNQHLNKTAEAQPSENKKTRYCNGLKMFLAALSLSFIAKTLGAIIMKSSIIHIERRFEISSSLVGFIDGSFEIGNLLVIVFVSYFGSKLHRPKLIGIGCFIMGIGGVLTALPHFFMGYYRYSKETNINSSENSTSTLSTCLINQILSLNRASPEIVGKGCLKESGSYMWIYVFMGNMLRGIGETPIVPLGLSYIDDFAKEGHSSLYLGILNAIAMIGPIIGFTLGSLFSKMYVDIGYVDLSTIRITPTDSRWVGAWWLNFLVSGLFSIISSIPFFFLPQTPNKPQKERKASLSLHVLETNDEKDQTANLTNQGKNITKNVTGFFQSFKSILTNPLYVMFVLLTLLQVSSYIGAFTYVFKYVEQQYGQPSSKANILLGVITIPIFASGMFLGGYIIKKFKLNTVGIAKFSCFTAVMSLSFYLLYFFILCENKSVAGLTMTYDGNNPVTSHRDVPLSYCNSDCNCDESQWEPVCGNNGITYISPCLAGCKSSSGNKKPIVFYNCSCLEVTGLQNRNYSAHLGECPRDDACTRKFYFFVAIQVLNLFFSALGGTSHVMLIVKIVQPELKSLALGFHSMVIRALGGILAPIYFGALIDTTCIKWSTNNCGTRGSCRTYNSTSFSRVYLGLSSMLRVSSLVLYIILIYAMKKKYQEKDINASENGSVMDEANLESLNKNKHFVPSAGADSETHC
The experiment in a line: (§1) TP_TRANSPORTER: uptake in OATP1B1-expressing HEK293 cells. The conditions noted are these: HEK293 cells that express OATP1B1.

The target in data set [2] is T2, Solute carrier organic anion transporter family member 1B1 (Homo sapiens, UniProt Q9Y6L6).
T2 sequence (Q9Y6L6 whole entry): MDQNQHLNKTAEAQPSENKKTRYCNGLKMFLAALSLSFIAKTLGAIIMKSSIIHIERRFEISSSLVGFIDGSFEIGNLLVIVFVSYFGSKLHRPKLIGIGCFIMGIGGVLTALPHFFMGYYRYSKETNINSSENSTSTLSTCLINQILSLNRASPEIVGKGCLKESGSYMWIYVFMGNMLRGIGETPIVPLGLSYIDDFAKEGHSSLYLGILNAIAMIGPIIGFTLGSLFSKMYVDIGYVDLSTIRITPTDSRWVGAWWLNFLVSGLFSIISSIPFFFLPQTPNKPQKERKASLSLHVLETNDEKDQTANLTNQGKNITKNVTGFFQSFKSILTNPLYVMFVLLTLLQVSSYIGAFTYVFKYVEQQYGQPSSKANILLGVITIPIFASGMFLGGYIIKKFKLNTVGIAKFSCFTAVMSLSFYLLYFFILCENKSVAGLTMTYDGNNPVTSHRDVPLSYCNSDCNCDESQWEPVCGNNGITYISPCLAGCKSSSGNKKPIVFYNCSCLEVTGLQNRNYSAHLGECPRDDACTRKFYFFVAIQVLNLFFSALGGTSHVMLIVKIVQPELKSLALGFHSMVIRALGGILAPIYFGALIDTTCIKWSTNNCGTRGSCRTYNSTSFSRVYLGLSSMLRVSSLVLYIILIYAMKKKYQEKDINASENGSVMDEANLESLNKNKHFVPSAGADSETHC
Described as §1. The conditions noted are these: hek293.

Substrate in data set [3]: CC[C@H](C)C(=O)O[C@H]1C[C@H](O)C=C2C=C[C@H](C)[C@H](CC[C@@H](O)C[C@@H](O)CC(=O)O)[C@H]21
Described as §1.

One may read the Km as the substrate concentration at which the rate is half of its maximum. `CC(C)c1c(C(=O)Nc2ccccc2)c(-c2ccccc2)c(-c2ccc(F)cc2)n1CC[C@@H](O)C[C@@H](O)CC(=O)O` [ATORVASTATIN]: the Km in data set [1] was determined as 12.4 µM. On to `COCc1c(C(C)C)nc(C(C)C)c(/C=C/[C@@H](O)C[C@@H](O)CC(=O)O)c1-c1ccc(F)cc1` [CERIVASTATIN], for which the Activity result in data set [2] is “substrate [(+)]”.

B1: Solute carrier organic anion transporter family member 1B1 (Homo sapiens) (protein)
chain: MDQNQHLNKTAEAQPSENKKTRYCNGLKMFLAALSLSFIAKTLGAIIMKSSIIHIERRFEISSSLVGFIDGSFEIGNLLVIVFVSYFGSKLHRPKLIGIGCFIMGIGGVLTALPHFFMGYYRYSKETNINSSENSTSTLSTCLINQILSLNRASPEIVGKGCLKESGSYMWIYVFMGNMLRGIGETPIVPLGLSYIDDFAKEGHSSLYLGILNAIAMIGPIIGFTLGSLFSKMYVDIGYVDLSTIRITPTDSRWVGAWWLNFLVSGLFSIISSIPFFFLPQTPNKPQKERKASLSLHVLETNDEKDQTANLTNQGKNITKNVTGFFQSFKSILTNPLYVMFVLLTLLQVSSYIGAFTYVFKYVEQQYGQPSSKANILLGVITIPIFASGMFLGGYIIKKFKLNTVGIAKFSCFTAVMSLSFYLLYFFILCENKSVAGLTMTYDGNNPVTSHRDVPLSYCNSDCNCDESQWEPVCGNNGITYISPCLAGCKSSSGNKKPIVFYNCSCLEVTGLQNRNYSAHLGECPRDDACTRKFYFFVAIQVLNLFFSALGGTSHVMLIVKIVQPELKSLALGFHSMVIRALGGILAPIYFGALIDTTCIKWSTNNCGTRGSCRTYNSTSFSRVYLGLSSMLRVSSLVLYIILIYAMKKKYQEKDINASENGSVMDEANLESLNKNKHFVPSAGADSETHC
With B1, in data set [3], the Km turned out to be 85.7 µM.
